Test results from patent US5741788A, “Heterocyclic compounds and their preparation and use” (Novo Nordisk A/S, priority 1994, dated 1998).
Where a name gives a salt, the structure may show the parent alone. Read-outs that look alike come from different tables or passages of the source.

Assays:
[1] = target: muscarinic acetylcholine receptors; assay: inhibition of specific binding of ^3 H-Oxotremorine-M (^3 H-Oxo) to rat cortex homogenate; design: species or system male Wistar rats; settings: 1.0 nM radioligand, 30 min at 25° C., pH 7.4
Description: The pharmacological properties of the compounds of the invention can be illustrated by determining their capability to inhibit the specific binding of ^3 H-Oxotremorine-M (^3 H-Oxo). Birdsdall N. J. M., Hulme E. C., and Burgen A. S. V. (1980). "The Character of Muscarinic Receptors in Different Regions of the Rat Brain". Proc. Roy. Soc. London (Series B) 207,1.
^3 H-Oxo labels muscarinic receptor in the CNS (with a preference for agonist domains of the receptors). Three different sites are labelled by ^3 H-Oxo. […] Using the present experimental conditions only the high and medium affinity sites are determined.
The inhibitory effects of compounds on ^3 H-Oxo binding reflects the affinity for muscarinic acetylcholine receptors.
All preparations are performed at 0°-4° C. unless otherwise indicated. Fresh cortex (0.1-1 g) from male Wistar rats (150-250 g) is homogenized for 5-10 s in 10 ml 20 mM Hepes pH: 7.4, with an Ultra-Turrax homogenizer. The homogenizer is rinsed with 10 ml of buffer and the combined suspension centrifuged for 15 min. at 40,000×g. The pellet is washed three times with buffer. In each step the pellet is homogenized as before in 2×10 ml of buffer and centrifuged for 10 min. at 40,000×g.
The final pellet is homogenized in 20 mM Hepes pH: 7.4 (100 ml per g of original tissue) and used for binding assay. Aliquots of 0.5 ml is added 25 ul of test solution and 25 ul of ^3 H-Oxotremorine (1.0 nM, final concentration) mixed and incubated for 30 min. at 25° C. Non-specific binding is determined in triplicate using arecoline (1 ug/ml, final concentration) as the test substance. After incubation samples are added 5 ml of ice-cold buffer and poured directly onto Whatman GF/C glass fiber filters under suction and immediately washed 2 times with 5 ml of ice-cold buffer. The amount of radioactivity on the filters are determined by conventional liquid scintillation counting. Specific binding is total binding minus non specific binding.
Test substances are dissolved in 10 ml water (if necessary heated on a steam-bath for less than 5 min.) at a concentration of 2.2 mg/ml. 25-75% inhibition of specific binding must be obtained before calculation of IC50.
The test value will be given as IC50 (the concentration (nM) of the test substance which inhibits the specific binding of ^3 H-Oxo by 50%).
(§1) IC50 =(applied test substance concentration)×(Cx /Co -Cx)nM
(§2) where Co is specific binding in control assays and Cx is the specific binding in the test assay. (The calculations assume normal mass-action kinetics).

[2] = target: T1, M1-site (pirenzepine sensitive site) of muscarinic receptors (Rattus norvegicus, UniProt P08482); assay: inhibition of ^3 H-PRZ (pirenzepine, [N-methyl-^3 H]) binding to rat cerebral cortex membranes; design: species or system male Wistar rats
T1 construct: Fresh cortex (0.1-1 g) from male Wistar rats (150-200 g) is homogenized; from tissue; host or cells: cerebral cortex of male Wistar rats
T1 sequence (P08482 1-460): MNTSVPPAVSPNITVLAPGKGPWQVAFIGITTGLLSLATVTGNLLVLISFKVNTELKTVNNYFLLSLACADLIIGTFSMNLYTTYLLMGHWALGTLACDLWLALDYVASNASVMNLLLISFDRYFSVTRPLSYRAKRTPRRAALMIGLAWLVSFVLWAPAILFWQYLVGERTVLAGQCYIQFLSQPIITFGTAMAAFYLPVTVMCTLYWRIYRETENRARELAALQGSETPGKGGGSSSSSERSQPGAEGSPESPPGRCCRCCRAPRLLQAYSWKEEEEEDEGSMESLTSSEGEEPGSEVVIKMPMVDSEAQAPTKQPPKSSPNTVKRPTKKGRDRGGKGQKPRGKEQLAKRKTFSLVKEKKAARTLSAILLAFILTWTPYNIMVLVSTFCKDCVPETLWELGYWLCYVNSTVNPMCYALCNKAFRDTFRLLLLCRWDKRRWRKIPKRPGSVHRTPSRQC
Description: Furthermore the pharmacological properties of the compounds of the invention can also be illustrated by determining their capability to inhibit ^3 H-PRZ (pirenzepine, [N-methyl-^3 H]) binding to rat cerebral cortex membranes. Pirenzepine binds selectively to subtype of muscarinic receptors. Historically the type is named the M1 -site, whereas pirenzepine sensitive site would be more appropriate. Although selective for M1 -sites pirenzepine also interact with M2 -sites.
All preparations are performed at 0°-4° C. unless otherwise indicated. Fresh cortex (0.1-1 g) from male Wistar rats (150-200 g) is homogenized for 5-10 s. in 10 ml 20 mM Hepes pH: 7.4, with an Ultra-Turraxhomogenizer. The homogenizer is rinzed with 2×10 ml of buffer and the combined suspension centrifuged for 15 min at 40,000×g. The pellet is washed three times with buffer. In each step the pellet is homogenized as before in 3×10 ml of buffer and centrifuged for 10 min at 40,000×g.
The final pellet is homogenized in 20 mM Hepes pH: 7.4 (100 ml per g of original tissue) and used for binding assay. Aliquots of 0.5 ml is added 20 μl of test solution and 25 μl of ^3 H-Pirenzepine (1.0 nM, final conc.), mixed and incubated for 60 min at 20° C. Non-specificbinding is determined in triplicate using atropine (1 μg/ml, final conc.) as the test substance. After incubation samples are added 5 ml of ice-cold buffer and poured directly onto Whatman GF/C glass fiber filters inder suction and immediately washed 2 times with 5 ml of ice-cold buffer. The amount of radioactivity on the filters are determined by conventional liquid scintillation counting. Specific binding is total binding minus non-specific binding.
Test substances are dissolved in 10 ml water, at a concentration of 0.22 mg/ml. 25-75% inhibition of specific binding must be obtained before calculation of IC50.
The test value will be given as IC50 (the concentration (nM) of the test substance which inhibits the specific binding of ^3 H-PRZ by 50%).
as §1, §2

[3] = target: muscarinic receptor in the CNS; settings: read-out: affinity of site labelled by ^3 H-Oxo, cited from earlier work

Question: Which “^3 H-Oxo-M IC50” value [1] does the source give for `CN1C2CCC1c1c(sc3nsnc13)C2.O=C(O)C(=O)O` (stereo not shown) [Compound 1, 6,8-Ethano-7-methyl-5,6,7,8-tetrahydro-1,2,5-thiadiazolo[3',4':4,5]thieno[3,2-c]pyridine oxalate] here?
Answer: 0.27 µg/mL

Question: And the IC50 [2]?
Answer: > 1000 nM

Question: With `C1Cc2sc3nsnc3c2CN1.O=C(O)C(=O)O` [Compound 2, 5,6,7,8-Tetrahydro-1,2,5-thiadiazolo[3',4':4,5]thieno[3,2-c]pyridine oxalate] as the compound, how does the “^3 H-Oxo-M IC50” value [1] read?
Answer: 0.0064 µg/mL

Question: What about the IC50 ([2]; rat cortex, 1.0 nM ^3 H-Pirenzepine, 60 min at 20° C., pH 7.4, read-out: ^3 H-Pz IC50) of the same compound?
Answer: 284 nM

Question: For `C1CC2CN(C1)Cc1c2sc2nsnc12.O=C(O)C(=O)O` (stereo not shown) [Compound 3, 5,9-Methano-5,6,7,8,9,10-hexahydro-1,2,5-thiadiazolo[3',4':4,5]thieno[3,2-c]azocine oxalate], which “^3 H-Oxo-M IC50” value [1] is on record?
Answer: 0.0022 µg/mL

Question: What about the IC50 [2] of the same compound?
Answer: 26 nM

Question: Which “^3 H-Oxo-M IC50” value [1] does the source give for `O=C(O)C(=O)O.c1cc2nsnc2c2c1CCNC2` [Compound 4, 6,7,8,9-Tetrahydro[1,2,5]thiadiazolo[3,4-h]isoquinoline oxalate] here?
Answer: 0.014 µg/mL

Question: And the IC50 [2]?
Answer: 255 nM

Question: With `CN1CCC2=C(C1)c1nsnc1SC2` [Compound 5, oxalate] as the compound, how does the “^3 H-Oxo-M IC50” value [1] read?
Answer: 0.014 µg/mL

Question: What about the IC50 [2] of the same compound?
Answer: 80 nM

Question: Which results are given for `C[N+](C)(C)CC#CCN1CCCC1=O` [^3 H-Oxo, ^3 H-Oxotremorine-M]?
Answer: Kd ([3]; first of three sites (high affinity)): 1.8 nM; Kd ([3]; second of three sites (medium affinity)): 20 nM; Kd ([3]; third of three sites, not determined under the present experimental conditions): 3000 nM
